Paper PMC5224518, “Hydrophobic mismatch demonstrated for membranolytic peptides, and their use as molecular rulers to measure bilayer thickness in native cells” (Scientific Reports, 2015)
Read-outs that look alike come from different tables or passages of the source. Ends that are not written are not given here.

Key:
[1] = system: Enterococcus faecalis (DSM 2570); format: cell-based
Description: (§1) Antimicrobial activity was measured by a standard MIC assay, carried out with Gram-positive Staphylococcus aureus (DSM 1104) and Enterococcus faecalis (DSM 2570) and with Gram-negative Escherichia coli (DSM 1103) and Pseudomonas aeruginosa (DSM 1117), as previously reported. Briefly, bacteria were grown in Müller-Hinton medium at 37°C overnight. Microtiter plates (96 wells of 100 μL) were filled with 50 μL of Müller-Hinton medium, and serial 2-fold dilutions of peptides were arranged in quadruple. The two final rows of each plate remained without peptide, so that the penultimate data point served as the positive control (no peptide), and the final one as the negative control (not inoculated). 50 μL of bacterial suspension (OD = 0.2) was added to the wells (except for the final row of each plate) to give a final concentration of 10^6 colony-forming units (CFU)/mL.

[2] = system: Escherichia coli (DSM 1103); format: cell-based
Description: as §1

[3] = system: Pseudomonas aeruginosa (DSM 1117); format: cell-based
Description: as §1

[4] = system: Staphylococcus aureus (DSM 1104); format: cell-based
Description: as §1

[5] = Vesicle leakage assay (ANTS/DPX fluorescence dequenching); format: biochemical; conditions: for percentage of leakage: P/L = 1:12.5, after 10 minutes, 100 μM lipid, 30°C, pH 7.5, relative to Triton X-100 = 100%
Description: For the leakage experiments, the buffer in which the vesicles were prepared contained the fluorophor ANTS (12.5 mM), the quencher DPX (45 mM), 50 mM NaCl, and 10 mM HEPES (pH 7.5). Liposomes were prepared by co-dissolving PC/PG 1:1 (mol/mol) mixtures of the lipids with different chain length in CHCl3/MeOH (3:1 v/v), together with 10^−2 mol% Rhod-PE by which the lipid loss during vesicle preparation (extrusion and gel filtration, see below) could be quantified. The peptide-to-lipid ratio (P/L) is given in mol/mol. The lipid mixture was dried under N2(g) and left to dry under vacuum overnight. The obtained thin film was then re-suspended in the buffer which contained the fluorophor and the quencher by vigorous vortexing, followed by 10 freeze-thaw cycles. Large unilamellar vesicles (LUV) were obtained by 21-fold extrusion (Avanti Mini Extruder; Avanti Polar Lipids, Alabaster, AL) of the liposomes through a Nuclepore polycarbonate membrane (pore size 100 nm, Whatman - GE Healthcare Europe, Freiburg, Germany) at a temperature 20°C above the lipid phase transition. Unencapsulated dye was removed by gel filtration using spin columns filled with Sephacryl 100-HR (Sigma-Aldrich, Taufkirchen, Germany), and equilibrated with an elution buffer (150 mM NaCl, 10 mM HEPES, pH 7.5) which balances the internal vesicle osmolarity.
Leakage of entrapped ANTS was monitored by fluorescence dequenching of ANTS[76]. Fluorescence measurements were performed in a thermostatted cuvette with constant stirring at 30°C in the same buffer as used for gel filtration on a FluoroMax2 spectrofluorimeter (HORIBA Jobin Yvon, Unterhaching, Germany) by setting the ANTS emission to 510 nm (5 nm slit) and its excitation to 355 nm (5 nm slit). The vesicles (100 μM lipid final concentration) of the desired composition were added to the cuvette containing the peptide at the P/L ratio to be tested (from 1 mM stock solutions in water). The level of 0% leakage corresponded to the fluorescence of the vesicles immediately after their addition, while 100% leakage was the fluorescence value obtained after addition of a 0.25 vol-% Triton X-100 after 10 min.

[6] = Circular dichroism, secondary structure deconvolution (CONTIN-LL); format: physicochemical; conditions: CD, P/L 1:50, 30 μM peptide, 30°C; for Helicity: DMPC/DMPG (3:1) small unilamellar vesicles, 10 mM phosphate buffer pH 7, minimum helical content; for Percentage of secondary structure element: α-helix: DMPC/DMPG (3:1) vesicles
Description: CD samples were prepared by co-solubilizing DMPC and DMPG (3:1 mol/mol) in chloroform/methanol 3:1 (v/v). After drying, the lipid film was dispersed in phosphate buffer (10 mM, pH 7) and homogenized by vortexing. Small unilamellar vesicles (SUVs) for CD samples were generated by sonication in a high-power ultrasonic bath with a beaker-shaped sonotrode (UTR 200, Hielscher, Germany). CD spectra were recorded on a J-815 spectropolarimeter (JASCO, Groß-Umstadt, Germany) between 260 and 185 nm at 0.1-nm intervals, using 1-mm quartz glass cells (Suprasil; Hellma, Müllheim, Germany) at 20°C, as reported previously. The peptides were measured at 20°C in 10 mM sodium phosphate buffer (pH 7.0) and at 30°C in lipid vesicles composed of DMPC/DMPG (3:1). Typical peptide concentrations of the final samples in phosphate buffer was 36–72 μM, and for the vesicle samples 30 μM with a peptide-to-lipid molar ratio (P/L) of 1:50. An averaged baseline of the pure solvent or lipid matrix, respectively, was subtracted. Finally, the spectra were converted to mean residue ellipticities (MRE) by using the weighed-in peptide amount and the volume of the sample for concentration determination. […] Although this ambiguity in peptide concentration leads most probably to an underestimation of the magnitude of the MRE values we attempted a quantitative deconvolution of CD data to estimate the relative contents of different secondary structure elements. If part of the weighted material was not peptide, this leads to an underestimating of the MRE, which also leads to an underestimation of the helical content. The values obtained are thus the minimum helical content of each peptide.
Secondary structure estimation from CD spectra was performed using the CONTIN-LL program, which is based on the ridge regression algorithm. The algorithm is provided by the DICHROWEB on-line server. The quality of the fit between experimental and back-calculated spectrum corresponding to the estimated secondary structure fractions was assessed from the normalized root mean square deviation (NRMSD), with a value <0.1 considered as a good fit[74].

[7] = DErPC/DErPG 1:1 vesicles (34.4/34.4 Å)
[8] = DErPC/POPG 1:1 vesicles (34.4/27.8 Å)
[9] = DMoPC/DOPG 1:1 vesicles (hydrophobic thickness 19.2/27.5 Å)
[10] = POPC/DErPG 1:1 vesicles (27.1/34.4 Å)
[11] = POPC/POPG 1:1 vesicles (27.1/27.8 Å)

KIAGKIAKIAGKIAKIAGK-NH2 [KIA19]
MIC ([1]; DSM 2570, 20 h): >481 µM | MIC ([2]; DSM 1103, 20 h): 15 µM | MIC ([3]; DSM 1117, 20 h): 120 µM | MIC ([4]; DSM 1104, 20 h): >120 µM

KIAGKIAKIAGKIAKIA-NH2 [KIA17]
MIC ([1]; DSM 2570, 20 h): >537 µM | MIC ([2]; DSM 1103, 20 h): 17 µM | MIC ([3]; DSM 1117, 20 h): 134 µM | MIC ([4]; DSM 1104, 20 h): 134 µM

KIAGKIAKIAGKIAKIAGKIAKIAGK-NH2 [KIA26]
MIC ([1]; DSM 2570, 20 h): 22 µM | MIC ([2]; DSM 1103, 20 h): 1.4 µM | MIC ([3]; DSM 1117, 20 h): 5.6 µM | MIC ([4]; DSM 1104, 20 h): 2.8 µM

KIAGKIAKIAGKIAKIAGKIA-NH2 [KIA21]
MIC ([1]; DSM 2570, 20 h): 443 µM | MIC ([2]; DSM 1103, 20 h): 1.7 µM | MIC ([3]; DSM 1117, 20 h): 28 µM | MIC ([4]; DSM 1104, 20 h): 3.5 µM

KIAGKIAKIAGKIA-NH2 [KIA14]
MIC ([1]; DSM 2570, 20 h): >657 µM | MIC ([2]; DSM 1103, 20 h): >164 µM | MIC ([3]; DSM 1117, 20 h): >164 µM | MIC ([4]; DSM 1104, 20 h): >164 µM

KIAGKIAKIAGKIAKIAGKIAKIA-NH2 [KIA24]
MIC ([1]; DSM 2570, 20 h): 24 µM | MIC ([2]; DSM 1103, 20 h): 1.5 µM | MIC ([3]; DSM 1117, 20 h): 6.0 µM | MIC ([4]; DSM 1104, 20 h): 1.5 µM

KIAGKIAKIAGKIAK-NH2 [KIA15]
MIC ([1]; DSM 2570, 20 h): >595 µM | MIC ([2]; DSM 1103, 20 h): >149 µM | antimicrobial activity (in words) ([2]; E. coli DSM 1103, MIC assay): completely inactive | MIC ([3]; DSM 1117, 20 h): >149 µM | MIC ([4]; DSM 1104, 20 h): >149 µM | percentage of leakage [5, 7]: 0% | percentage of leakage [5, 8]: 3% | percentage of leakage [5, 9]: 3% | percentage of leakage [5, 10]: 2% | percentage of leakage [5, 11]: 2% | leakage ([5]; POPC/POPG vesicles, P/L = 1:50, time course over 600 s, Triton X-100 = 100%): < 2% | Helicity [6]: 69% | Percentage of secondary structure element: α-helix [6]: 68.7%

KIAGKIAKIAGKIAKIAGKIAKIAGKIA-NH2 [KIA28]
MIC ([1]; DSM 2570, 20 h): 5.2 µM | MIC ([2]; DSM 1103, 20 h): 2.6 µM | MIC ([3]; DSM 1117, 20 h): 5.2 µM | MIC ([4]; DSM 1104, 20 h): 2.6 µM

GMASKAGAIAGKIAKVALKAL-NH2 [PGLa, reference compound]
MIC ([1]; E. faecalis, same assay as Table 2, given in µM): >477 µM | MIC ([2]; E. coli, same assay as Table 2, given in µM): 15 µM | MIC ([3]; P. aeruginosa, same assay as Table 2, given in µM): 119 µM | MIC ([4]; S. aureus, same assay as Table 2, given in µM): 30 µM

KIAGKIAKIAGKIAKIAGKIAK-NH2 [KIA22]
MIC ([1]; DSM 2570, 20 h): 414 µM | antimicrobial activity (in words) ([1]; E. faecalis DSM 2570, MIC assay): hardly any activity | MIC ([2]; DSM 1103, 20 h): 1.6 µM | MIC ([3]; DSM 1117, 20 h): 13 µM | antimicrobial activity (in words) ([3]; P. aeruginosa DSM 1117, MIC assay): somewhat active | MIC ([4]; DSM 1104, 20 h): 6.5 µM | percentage of leakage [5, 7]: 6% | percentage of leakage [5, 8]: 85% | percentage of leakage [5, 9]: 100% | percentage of leakage [5, 10]: 26% | percentage of leakage [5, 11]: 100% | kinetics (rate) of leakage ([5]; POPC/POPG vesicles, P/L = 1:50, time course over 600 s): slower kinetics | Helicity [6]: 68% | Percentage of secondary structure element: α-helix [6]: 67.7%
